Blank lines part the entries; values can stand above or below the molecule they belong to.
What was measured:
20S proteasome (h20S) = assay: Microscale thermophoresis (MST) protein-proteasome interaction; type: binding, human; conditions: NT-647-labeled protein titrated with h20S 0.06-1965 nM, 22 °C, 20 mM Tris-HCl pH 7.2, three independent experiments
Protocol: Enolase, α-synuclein and their oxidized forms were labeled using Monolith Protein Labeling Kit RED-NHS 2nd Generation Amine Reactive, NT-647 (Nanotemper, München, Germany), according to the manufacturer instructions. The labeling process was carried out in 50 mM HEPES buffer, pH 7.4, in the protein:NT-647 1:2 ratio. The incubation time was 60 min for enolase and 30 min for α-synuclein, at 21 °C. After labeling, the excess of the fluorescent reagent was removed using the columns provided by the manufacturer and 20 mM Tris-HCl buffer, pH 7.2, containing 200 mM NaCl and 10% glycerol. The obtained labeled proteins were concentrated on Amicon 3K spin-columns (Merck, Darmstadt, Germany). Protein concentrations were determined by measuring absorbance at 280 nm, using UV/Vis spectrophotometer (DU®730 Beckman Coulter).
Direct interactions between the fluorescently labeled, native and oxidized, proteins and the 20S proteasome were examined using microscale thermophoresis (NanoTemper Monolith NT.115). The labeled protein concentration was kept constant at 250 nM for native and oxidized α-synuclein and 125 nM and 25 nM for native and oxidized enolase, respectively. […] The EC50 values were calculated based on results obtained in three independent experiments.

[1] = tested on: ChT-L peptidase of proteasome in HEK293T cell extracts; assay: Proteasome ChT-L activity in HEK293T cell lysates; type: biochemical, human; conditions: 1 µM; HEK293T lysate 20 µg/mL protein; 100 µM Suc-LLVY-AMC
Protocol: Human embryonic kidney cells (HEK293T) were maintained in Dulbecco’s Modified Eagle Medium (DMEM) supplemented with 10% Fetal Bovine Serum and penicillin/streptomycin (100 units/mL/100 µg/mL), at 37 °C with 5% CO2. Cells were grown in a T-75 flask to ~80% confluency and then were lysed using Reporter Lysis Buffer (Promega, Madison, WI, USA) and the manufacturer’s protocol. Protein content was measured using BCA assay. Stock solutions of the fluorogenic substrate (Suc-LLVY-AMC) and the tested peptidomimetics were prepared in dimethyl sulfoxide (DMSO). Potential activators were tested in the following concentrations: 1, 5, 10, 25 and 50 μM. The final DMSO concentration was kept constant at 2%. The activity assays were performed analogously to those described in the proteasome activity assays subsection, in the 96-well plate format in 50 mM Tris-HCl buffer, pH 8.0, using a 100 μL reaction volume. The final concentration of the fluorogenic substrate and cell lysate proteins were: 100 μM and 20 µg/mL, respectively. As a negative control, 1 μM bortezomib solution was used.

EC50 (20S proteasome (h20S); read-out: EC50 of binding to 20S proteasome (MST, Hill fit)): 32.3 ± 1.3 nM
Molecule: α-synuclein

Molecule: CC(C)C[C@H](NC(=O)[C@H](Cc1ccccc1)NC(=O)c1cnccn1)B(O)O [bortezomib]
degradation of Suc-LLVY-AMC substrate in cell extracts (negative control) [1]: completely blocked

EC50 of binding to 20S proteasome (MST, Hill fit) (20S proteasome (h20S)): did not bind
Molecule: enolase: native human enolase 2, 434-residue thermolabile protein, model substrate
